From patent US20220354974A1, “REAGENTS AND METHODS FOR LABELING MOLECULES WITH ASTATINE ISOTOPES IN HIGHER OXIDATION STATES” (priority 2021, published 2022)

Experiment: Stability in solution of 211At-labeling products of biotin-sarcosine-bis-B10 by radio-HPLC
Assay type: physicochemical
Experimental: FIGS. 22A-22D compare radio-HPLC chromatograms of reaction product from ^211At labeling of Compound 8 (see FIG. 21): 0.1 mg of Compound 8 was reacted with ^211At in 5% HOAc in MeOH/H2O without ChT at room temperature for 5 min (22A) and the reaction mixture sat at room temperature for about 1 h (22B); and 0.1 mg of Compound 8 was reacted with ^211At in 5% HOAc in MeOH/H2O with 10 μg of ChT at room temperature for 3 min. (22C) the reaction mixture after setting at room temperature for about 2 h (22D).
In an ^211At-labeling reaction with biotin-sarcosine-bis-B10, 8, a solution of [^211At]NaAt in 5% HOAc in MeOH/H2O was reacted at room temperature for 5 min without an oxidant. The reaction was quenched with 10 μL of 1 mg/mL Na2S2O5 (a reductant). The reaction provided one major ^211At labeled product (95%) as shown the radio-HPLC peak at about 10.1 min (FIG. 22A). […] In another ^211At-labeling reaction, the same reaction conditions as above were used except a chemical oxidant chloramine-T (ChT) was added to the reaction solution. The reaction with ChT provided multiple products that were eluted from 9-11 min. After sitting at room temperature for 2 h, a significant amount of free ^211At was observed (29%) (FIG. 22D).

3,5-B10H9-dioxa-Ph-Sar-Biotin [Compound 8]
free 211At observed (labeled with ChT, after sitting at room temperature for 2 h): 29% | change in 211At-labeled product in solution (labeled without oxidant, quenched, 1 h at room temperature): No change
